Experimental data from patent US20180105881A1, “METHOD FOR DETERMINING THE SURVIVAL PROGNOSIS OF A PATIENT SUFFERING FROM PANCREATIC CANCER” (ACOBIOM, priority 2014, published 2018).

Test system: pancreatic cancer
Experiment: Overall survival of pancreatic cancer patients treated with gemcitabine (reference population, blood taken before treatment)
Format: in vivo, Homo sapiens
Details: patients treated with gemcitabine who have the genetic pro-metastatic fingerprint
Procedure: Samples of whole blood from 61 patients, taken before treatment, packaged in PAXgene tubes in dry ice (supplier: LabConnect, United States) were received and stored at −80° C. They were designated “week 0”.
The RNA samples were divided into 2 groups: • M4: corresponding to the patients who received gemcitabine after collection of the reference blood samples, and who died before month 4; • M15: corresponding to the patients who received gemcitabine after collection of the reference blood samples, and were alive after month 15.
An additional pharmacogenomic study was also carried out. Samples of the RNA from blood from 61 patients were taken before any treatment, and they were analysed by RT-PCR.
The patients treated with gemcitabine who have the genetic pro-metastatic fingerprint have a low overall survival rate (OS) (5.0 months).

With `Nc1ccn([C@@H]2O[C@H](CO)[C@@H](O)C2(F)F)c(=O)n1` [Gemcitabine] the overall survival time was 5.0 months.
